{"source": "patent US20020137929A1", "about": "“1 - (3-heterocyclylphenyl) isothiourea, -isourea, -guanidine and -amidine herbicidal agents” (Intellectual Property Department, BASF Aktiengesellschaft, priority 1998, published 2002)", "key": {"AMBEL (Ragweed, Common) [1]": {"test_system": "AMBEL (Ragweed, Common)", "assay": "Postemergence herbicidal evaluation", "assay_type": "in vivo, Ambrosia artemisifolia", "details": "postemergence", "summary_of_the_method": "(§1)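 Two-week-old seedlings sprayed with compound in 50/50 acetone/water plus 0.5% TWEEN 20, at about 0.0156 to 0.500 kg/ha, nozzle at 40 psi. Kept in greenhouse; rated visually 4-5 weeks after treatment on a 0-9 scale versus control, repeat tests averaged.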"}, "[2]": {"test_system": "IPOHE (Morningglory, Ivyleaf)", "assay": "Postemergence herbicidal evaluation", "assay_type": "in vivo, Ipomoea hederacea", "details": "postemergence", "summary_of_the_method": "as §1"}, "[3]": {"test_system": "GLXMAW (Soybean, Williams)", "assay": "Postemergence herbicidal evaluation", "assay_type": "in vivo, Glycine max, (L.) Merr. cv Williams", "details": "postemergence", "summary_of_the_method": "as §1"}, "ZEAMX (Corn, Field)": {"test_system": "ZEAMX (Corn, Field)", "assay": "Postemergence herbicidal evaluation", "assay_type": "in vivo, Zea mays", "details": "postemergence", "summary_of_the_method": "as §1"}, "ABUTH (Velvetleaf)": {"test_system": "ABUTH (Velvetleaf)", "assay": "Preemergence herbicidal evaluation", "assay_type": "in vivo, Abutilon theophrasti", "details": "rated 4-5 weeks after treatment", "summary_of_the_method": "(§2)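 Seeds were mixed with potting soil and planted on about one inch of soil, then sprayed with test compound in aqueous acetone at about 0.0156 to 0.500 kg per hectare. Plants grew under standard greenhouse care and were visually rated 0-9 against untreated controls 4-5 weeks post-treatment.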"}, "AMBEL (Ragweed, Common) [4]": {"test_system": "AMBEL (Ragweed, Common)", "assay": "Preemergence herbicidal evaluation", "assay_type": "in vivo, Ambrosia artemisifolia", "details": "rated 4-5 weeks after treatment", "summary_of_the_method": "as §2"}, "CASOB (Sicklepod)": {"test_system": "CASOB (Sicklepod)", "assay": "Preemergence herbicidal evaluation", "assay_type": "in vivo, Cassia obtusifolia", "details": "rated 4-5 weeks after treatment", "summary_of_the_method": "as §2"}, "GALAP (Galium)": {"test_system": "GALAP (Galium)", "assay": "Preemergence herbicidal evaluation", "assay_type": "in vivo, Galium aparine", "details": "rated 4-5 weeks after treatment", "summary_of_the_method": "as §2"}, "ECHCG (Barnyardgrass)": {"test_system": "ECHCG (Barnyardgrass)", "assay": "Preemergence herbicidal evaluation", "assay_type": "in vivo, Echinochloa crus-galli", "details": "rated 4-5 weeks after treatment", "summary_of_the_method": "as §2"}, "SETVI (Foxtail, Green)": {"test_system": "SETVI (Foxtail, Green)", "assay": "Preemergence herbicidal evaluation", "assay_type": "in vivo, Setaria viridis", "details": "rated 4-5 weeks after treatment", "summary_of_the_method": "as §2"}, "[5]": {"test_system": "GLXMAW (Soybean, Williams)", "assay": "Preemergence herbicidal evaluation", "assay_type": "in vivo, Glycine max, (L.) Merr. cv Williams", "details": "rated 4-5 weeks after treatment", "summary_of_the_method": "as §2"}, "CYPSE (Flatsedge)": {"test_system": "CYPSE (Flatsedge)", "assay": "Preemergence weed control under flooded paddy conditions", "assay_type": "in vivo, Cyperus serotinus", "details": "rated 3-4 weeks after treatment", "summary_of_the_method": "(§3)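 Visual injury scored 0-9 against control three to four weeks post-treatment, greenhouse-grown. Application: acetone/water (50/50) solutions dosed directly into flood water (1.5-3 cm over silt loam, planted top 0.5 cm), roughly 0.0313 to 0.500 kg/ha active ingredient.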"}, "[6]": {"test_system": "SAGPY (Arrowhead (Pygmaea))", "assay": "Preemergence weed control under flooded paddy conditions", "assay_type": "in vivo, Sagittaria pygmaea", "details": "rated 3-4 weeks after treatment", "summary_of_the_method": "as §3"}}}
{"compound": "CCOC(=O)CN1C(=O)C(C(=O)OCC)SC1=Nc1cc(-n2c(=O)cc(C(F)(F)F)n(C)c2=O)c(F)cc1Cl", "note": "(stereo not shown) [Compound 127, 5-Carboxy-2-{{2-chloro-5-[3,6-dihydro-3-methyl-2,6-dioxo-4-(trifluoromethyl)-1(2H)-pyrimidinyl]-4-fluorophenyl}imino}-4-oxo-3-thiazolidineacetic acid, diethyl ester]", "values": [{"measurement": "herbicidal rating AMBEL", "setting": "AMBEL (Ragweed, Common) [1]; rate 0.0156 kg/ha", "result": 9.0}, {"measurement": "herbicidal rating AMBEL", "setting": "AMBEL (Ragweed, Common) [1]; rate 0.0313 kg/ha", "result": 9.0}, {"measurement": "herbicidal rating AMBEL", "setting": "AMBEL (Ragweed, Common) [1]; rate 0.0625 kg/ha", "result": 9.0}, {"measurement": "herbicidal rating AMBEL", "setting": "AMBEL (Ragweed, Common) [1]; rate 0.1250 kg/ha", "result": 9.0}, {"measurement": "herbicidal rating IPOHE", "setting": "[2]; rate 0.0156 kg/ha", "result": 9.0}, {"measurement": "herbicidal rating IPOHE", "setting": "[2]; rate 0.0313 kg/ha", "result": 9.0}, {"measurement": "herbicidal rating IPOHE", "setting": "[2]; rate 0.0625 kg/ha", "result": 9.0}, {"measurement": "herbicidal rating IPOHE", "setting": "[2]; rate 0.1250 kg/ha", "result": 9.0}, {"measurement": "herbicidal rating GLXMAW", "setting": "[3]; rate 0.0156 kg/ha", "result": 5.0}, {"measurement": "herbicidal rating GLXMAW", "setting": "[3]; rate 0.0313 kg/ha", "result": 5.5}, {"measurement": "herbicidal rating GLXMAW", "setting": "[3]; rate 0.0625 kg/ha", "result": 7.5}, {"measurement": "herbicidal rating GLXMAW", "setting": "[3]; rate 0.1250 kg/ha", "result": 9.0}, {"measurement": "herbicidal rating ZEAMX", "setting": "ZEAMX (Corn, Field); rate 0.0156 kg/ha", "result": 4.5}, {"measurement": "herbicidal rating ZEAMX", "setting": "ZEAMX (Corn, Field); rate 0.0313 kg/ha", "result": 4.5}, {"measurement": "herbicidal rating ZEAMX", "setting": "ZEAMX (Corn, Field); rate 0.0625 kg/ha", "result": 7.0}, {"measurement": "herbicidal rating ZEAMX", "setting": "ZEAMX (Corn, Field); rate 0.1250 kg/ha", "result": 8.0}, {"measurement": "Preemergence herbicidal rating ABUTH", "setting": "ABUTH (Velvetleaf); rate 0.0313 kg/ha", "result": 7.0}, {"measurement": "Preemergence herbicidal rating ABUTH", "setting": "ABUTH (Velvetleaf); rate 0.0625 kg/ha", "result": 7.0}, {"measurement": "Preemergence herbicidal rating ABUTH", "setting": "ABUTH (Velvetleaf); rate 0.1250 kg/ha", "result": 9.0}, {"measurement": "Preemergence herbicidal rating ABUTH", "setting": "ABUTH (Velvetleaf); rate 0.2500 kg/ha", "result": 9.0}, {"measurement": "Preemergence herbicidal rating ABUTH", "setting": "ABUTH (Velvetleaf); rate 0.5000 kg/ha", "result": 9.0}, {"measurement": "Preemergence herbicidal rating AMBEL", "setting": "AMBEL (Ragweed, Common) [4]; rate 0.0313 kg/ha", "result": 0.0}, {"measurement": "Preemergence herbicidal rating AMBEL", "setting": "AMBEL (Ragweed, Common) [4]; rate 0.0625 kg/ha", "result": 0.0}, {"measurement": "Preemergence herbicidal rating AMBEL", "setting": "AMBEL (Ragweed, Common) [4]; rate 0.2500 kg/ha", "result": 5.0}, {"measurement": "Preemergence herbicidal rating AMBEL", "setting": "AMBEL (Ragweed, Common) [4]; rate 0.5000 kg/ha", "result": 9.0}, {"measurement": "Preemergence herbicidal rating CASOB", "setting": "CASOB (Sicklepod); rate 0.0313 kg/ha", "result": 0.0}, {"measurement": "Preemergence herbicidal rating CASOB", "setting": "CASOB (Sicklepod); rate 0.0625 kg/ha", "result": 0.0}, {"measurement": "Preemergence herbicidal rating CASOB", "setting": "CASOB (Sicklepod); rate 0.1250 kg/ha", "result": 0.0}, {"measurement": "Preemergence herbicidal rating CASOB", "setting": "CASOB (Sicklepod); rate 0.2500 kg/ha", "result": 2.0}, {"measurement": "Preemergence herbicidal rating CASOB", "setting": "CASOB (Sicklepod); rate 0.5000 kg/ha", "result": 6.0}, {"measurement": "Preemergence herbicidal rating GALAP", "setting": "GALAP (Galium); rate 0.0313 kg/ha", "result": 0.0}, {"measurement": "Preemergence herbicidal rating GALAP", "setting": "GALAP (Galium); rate 0.0625 kg/ha", "result": 3.0}, {"measurement": "Preemergence herbicidal rating GALAP", "setting": "GALAP (Galium); rate 0.1250 kg/ha", "result": 3.0}, {"measurement": "Preemergence herbicidal rating GALAP", "setting": "GALAP (Galium); rate 0.2500 kg/ha", "result": 7.0}, {"measurement": "Preemergence herbicidal rating GALAP", "setting": "GALAP (Galium); rate 0.5000 kg/ha", "result": 9.0}, {"measurement": "Preemergence herbicidal rating ECHCG", "setting": "ECHCG (Barnyardgrass); rate 0.0313 kg/ha", "result": 0.0}, {"measurement": "Preemergence herbicidal rating ECHCG", "setting": "ECHCG (Barnyardgrass); rate 0.0625 kg/ha", "result": 0.0}, {"measurement": "Preemergence herbicidal rating ECHCG", "setting": "ECHCG (Barnyardgrass); rate 0.1250 kg/ha", "result": 0.0}, {"measurement": "Preemergence herbicidal rating ECHCG", "setting": "ECHCG (Barnyardgrass); rate 0.2500 kg/ha", "result": 0.0}, {"measurement": "Preemergence herbicidal rating ECHCG", "setting": "ECHCG (Barnyardgrass); rate 0.5000 kg/ha", "result": 0.0}, {"measurement": "Preemergence herbicidal rating SETVI", "setting": "SETVI (Foxtail, Green); rate 0.0313 kg/ha", "result": 0.0}, {"measurement": "Preemergence herbicidal rating SETVI", "setting": "SETVI (Foxtail, Green); rate 0.0625 kg/ha", "result": 0.0}, {"measurement": "Preemergence herbicidal rating SETVI", "setting": "SETVI (Foxtail, Green); rate 0.1250 kg/ha", "result": 9.0}, {"measurement": "Preemergence herbicidal rating SETVI", "setting": "SETVI (Foxtail, Green); rate 0.2500 kg/ha", "result": 9.0}, {"measurement": "Preemergence herbicidal rating SETVI", "setting": "SETVI (Foxtail, Green); rate 0.5000 kg/ha", "result": 9.0}, {"measurement": "Preemergence herbicidal rating GLXMAW", "setting": "[5]; rate 0.0313 kg/ha", "result": 0.0}, {"measurement": "Preemergence herbicidal rating GLXMAW", "setting": "[5]; rate 0.0625 kg/ha", "result": 0.0}, {"measurement": "Preemergence herbicidal rating GLXMAW", "setting": "[5]; rate 0.1250 kg/ha", "result": 0.0}, {"measurement": "Preemergence herbicidal rating GLXMAW", "setting": "[5]; rate 0.2500 kg/ha", "result": 4.0}, {"measurement": "Preemergence herbicidal rating GLXMAW", "setting": "[5]; rate 0.5000 kg/ha", "result": 4.0}, {"measurement": "herbicidal effect rating, CYPSE", "setting": "CYPSE (Flatsedge); 0.0313 kg/ha", "result": 0.0}, {"measurement": "herbicidal effect rating, CYPSE", "setting": "CYPSE (Flatsedge); 0.0625 kg/ha", "result": 0.0}, {"measurement": "herbicidal effect rating, CYPSE", "setting": "CYPSE (Flatsedge); 0.1250 kg/ha", "result": 0.0}, {"measurement": "herbicidal effect rating, CYPSE", "setting": "CYPSE (Flatsedge); 0.2500 kg/ha", "result": 0.0}, {"measurement": "herbicidal effect rating, SAGPY", "setting": "[6]; 0.0313 kg/ha", "result": 0.0}, {"measurement": "herbicidal effect rating, SAGPY", "setting": "[6]; 0.0625 kg/ha", "result": 0.0}, {"measurement": "herbicidal effect rating, SAGPY", "setting": "[6]; 0.1250 kg/ha", "result": 0.0}, {"measurement": "herbicidal effect rating, SAGPY", "setting": "[6]; 0.2500 kg/ha", "result": 3.0}]}
